Measured values reported in ChEMBL document CHEMBL1149262, “Monoamine transporter binding, locomotor activity, and drug discrimination properties of 3-(4-substituted-phenyl)tropane-2-carboxylic acid methyl ester isomers” (J Med Chem, 2004).
pIC50, pKi: −log10 of the molar value. Active and inactive are the calls of the source. No cut-off for these calls is given here.

How the values were obtained:
Mus musculus [1] = assay: Locomotor activity in CD1 mouse assessed as stimulation at 1 mg/kg, ip after 1 hr relative to control; type: functional; settings: route intraperitoneal
Mus musculus [2] = assay: Locomotor activity in CD1 mouse assessed as stimulation at 1 mg/kg, ip after 2 hrs relative to control; type: functional; settings: route intraperitoneal
Mus musculus [3] = assay: Locomotor activity in CD1 mouse assessed as stimulation at 1 mg/kg, ip after 3 hrs relative to control; type: functional; settings: route intraperitoneal
Mus musculus [4] = assay: Locomotor activity in CD1 mouse assessed as stimulation at 1 mg/kg, ip after 4 hrs relative to control; type: functional; settings: route intraperitoneal
Rattus norvegicus [5] = assay: Cocaine discrimination in ip dosed CD Albino rat; type: functional
Rattus norvegicus [6] = assay: Drug discrimination effect in CD Albino rat assessed as percent of rat choosing cocaine lever at 3 mg/kg, ip; type: functional; settings: route intraperitoneal
Rattus norvegicus [7] = assay: Drug discrimination effect in CD Albino rat assessed as percent of rat choosing cocaine lever at 10 mg/kg, ip; type: functional; settings: route intraperitoneal
Rattus norvegicus [8] = assay: Drug discrimination effect in CD Albino rat assessed as percent of rat choosing cocaine lever at 17 mg/kg, ip; type: functional; settings: route intraperitoneal
Mus musculus [9] = assay: Activity in CD1 mouse assessed as slight or intermittent stereotypy at 10 mg/kg, ip after 4 hrs; type: functional, organism-based; set-up: dose 10 mg/kg
Mus musculus [10] = assay: Activity in CD1 mouse assessed as stereotypy at 100 mg/kg, ip after 4 hrs; type: functional, organism-based; set-up: dose 100 mg/kg
Mus musculus [11] = assay: Activity in CD1 mouse assessed as straub tail at 100 mg/kg, ip after 4 hrs; type: functional, organism-based; set-up: dose 100 mg/kg
Mus musculus [12] = assay: Activity in CD1 mouse assessed as hind limb splay at 100 mg/kg, ip after 4 hrs; type: functional, organism-based; set-up: dose 100 mg/kg; settings: Hindlimb
Mus musculus [13] = assay: Activity in CD1 mouse assessed as death at 100 mg/kg, ip after 4 hrs; type: functional, organism-based; set-up: dose 100 mg/kg
Mus musculus [14] = assay: Activity in CD1 mouse assessed as convulsions at 100 mg/kg, ip after 4 hrs; type: functional, organism-based; set-up: dose 100 mg/kg
Mus musculus [15] = assay: Activity in CD1 mouse assessed as tremor at 100 mg/kg, ip after 4 hrs; type: functional, organism-based; set-up: dose 100 mg/kg
[16] = target: Sodium-dependent dopamine transporter (Homo sapiens, UniProt Q01959); assay: Displacement of [3H]WIN-35428 from DAT
Chain of Sodium-dependent dopamine transporter (Q01959 whole entry): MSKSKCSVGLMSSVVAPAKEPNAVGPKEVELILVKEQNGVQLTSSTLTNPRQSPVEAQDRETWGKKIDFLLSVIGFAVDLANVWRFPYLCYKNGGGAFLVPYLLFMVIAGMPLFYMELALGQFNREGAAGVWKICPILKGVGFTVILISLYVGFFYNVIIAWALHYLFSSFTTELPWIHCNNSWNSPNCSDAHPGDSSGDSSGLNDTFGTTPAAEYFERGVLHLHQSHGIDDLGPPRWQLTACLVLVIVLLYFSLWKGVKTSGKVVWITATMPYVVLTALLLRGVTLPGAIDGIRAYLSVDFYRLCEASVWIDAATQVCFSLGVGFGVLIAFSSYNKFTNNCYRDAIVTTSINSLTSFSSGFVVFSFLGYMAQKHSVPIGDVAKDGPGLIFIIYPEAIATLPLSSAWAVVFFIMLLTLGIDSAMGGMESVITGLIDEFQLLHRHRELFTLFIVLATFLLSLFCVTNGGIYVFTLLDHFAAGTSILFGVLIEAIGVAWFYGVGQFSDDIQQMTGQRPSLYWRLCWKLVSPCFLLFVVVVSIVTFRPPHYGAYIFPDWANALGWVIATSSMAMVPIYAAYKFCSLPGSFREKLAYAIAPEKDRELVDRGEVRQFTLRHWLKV

[17] = target: Sodium-dependent noradrenaline transporter (Homo sapiens, UniProt P23975); assay: Displacement of [3H]nisoxetine from NET
Chain of Sodium-dependent noradrenaline transporter (P23975 whole entry): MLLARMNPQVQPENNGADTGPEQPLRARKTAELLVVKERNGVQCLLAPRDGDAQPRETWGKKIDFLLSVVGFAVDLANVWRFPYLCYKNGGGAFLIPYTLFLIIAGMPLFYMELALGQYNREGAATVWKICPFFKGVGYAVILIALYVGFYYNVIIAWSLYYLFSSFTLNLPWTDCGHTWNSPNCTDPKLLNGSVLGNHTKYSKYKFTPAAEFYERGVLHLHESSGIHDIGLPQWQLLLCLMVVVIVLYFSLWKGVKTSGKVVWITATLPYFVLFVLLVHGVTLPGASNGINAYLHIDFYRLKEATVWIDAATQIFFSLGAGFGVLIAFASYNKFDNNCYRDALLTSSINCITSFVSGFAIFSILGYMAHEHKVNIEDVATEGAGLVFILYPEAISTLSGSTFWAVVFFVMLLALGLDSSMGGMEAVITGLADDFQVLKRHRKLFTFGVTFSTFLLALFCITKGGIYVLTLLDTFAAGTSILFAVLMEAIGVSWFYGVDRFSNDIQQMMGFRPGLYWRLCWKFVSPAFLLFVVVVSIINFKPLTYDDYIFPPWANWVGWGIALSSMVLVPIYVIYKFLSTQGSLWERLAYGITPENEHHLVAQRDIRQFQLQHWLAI

Mus musculus [18] = assay: Locomotor activity in ip dosed CD1 mouse in peak hour; type: functional
Mus musculus [19] = assay: Locomotor activity in CD1 mouse assessed as stimulation at 3 mg/kg, ip after 1 hr relative to control; type: functional; settings: route intraperitoneal
Mus musculus [20] = assay: Locomotor activity in CD1 mouse assessed as stimulation at 3 mg/kg, ip after 2 hrs relative to control; type: functional; settings: route intraperitoneal
Mus musculus [21] = assay: Locomotor activity in CD1 mouse assessed as stimulation at 3 mg/kg, ip after 3 hrs relative to control; type: functional; settings: route intraperitoneal
Mus musculus [22] = assay: Locomotor activity in CD1 mouse assessed as stimulation at 3 mg/kg, ip after 4 hrs relative to control; type: functional; settings: route intraperitoneal
Mus musculus [23] = assay: Locomotor activity in CD1 mouse assessed as stimulation at 10 mg/kg, ip after 1 hr relative to control; type: functional; settings: route intraperitoneal
Mus musculus [24] = assay: Locomotor activity in CD1 mouse assessed as stimulation at 10 mg/kg, ip after 2 hrs relative to control; type: functional; settings: route intraperitoneal
Mus musculus [25] = assay: Locomotor activity in CD1 mouse assessed as stimulation at 10 mg/kg, ip after 3 hrs relative to control; type: functional; settings: route intraperitoneal
Mus musculus [26] = assay: Locomotor activity in CD1 mouse assessed as stimulation at 10 mg/kg, ip after 4 hrs relative to control; type: functional; settings: route intraperitoneal
Mus musculus [27] = assay: Locomotor activity in CD1 mouse assessed as stimulation at 30 mg/kg, ip after 1 hr relative to control; type: functional; settings: route intraperitoneal
Mus musculus [28] = assay: Locomotor activity in CD1 mouse assessed as stimulation at 30 mg/kg, ip after 2 hrs relative to control; type: functional; settings: route intraperitoneal
Mus musculus [29] = assay: Locomotor activity in CD1 mouse assessed as stimulation at 30 mg/kg, ip after 3 hrs relative to control; type: functional; settings: route intraperitoneal
Mus musculus [30] = assay: Locomotor activity in CD1 mouse assessed as stimulation at 30 mg/kg, ip after 4 hrs relative to control; type: functional; settings: route intraperitoneal
Mus musculus [31] = assay: Locomotor activity in ip dosed CD1 mouse after 1 hr relative to cocaine; type: functional
[32] = target: Sodium-dependent serotonin transporter (Homo sapiens, UniProt P31645)
Chain of Sodium-dependent serotonin transporter (P31645 whole entry): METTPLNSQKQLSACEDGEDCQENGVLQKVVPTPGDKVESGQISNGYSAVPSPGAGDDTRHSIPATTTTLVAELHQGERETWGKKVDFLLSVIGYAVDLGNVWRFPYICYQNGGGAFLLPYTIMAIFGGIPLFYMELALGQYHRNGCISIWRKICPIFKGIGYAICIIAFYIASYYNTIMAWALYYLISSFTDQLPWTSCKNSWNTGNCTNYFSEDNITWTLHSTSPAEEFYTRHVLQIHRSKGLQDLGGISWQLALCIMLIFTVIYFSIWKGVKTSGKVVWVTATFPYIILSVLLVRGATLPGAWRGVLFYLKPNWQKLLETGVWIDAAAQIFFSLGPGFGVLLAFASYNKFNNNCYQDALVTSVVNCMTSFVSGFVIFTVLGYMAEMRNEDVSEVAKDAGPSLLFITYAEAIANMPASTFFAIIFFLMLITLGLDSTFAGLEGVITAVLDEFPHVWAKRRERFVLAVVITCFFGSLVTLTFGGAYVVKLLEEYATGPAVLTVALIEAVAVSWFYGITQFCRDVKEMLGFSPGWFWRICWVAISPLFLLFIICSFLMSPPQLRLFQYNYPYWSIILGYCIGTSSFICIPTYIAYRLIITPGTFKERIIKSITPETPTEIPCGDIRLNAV
Description: Displacement of [3H]paroxetine from 5HTT

Rattus norvegicus [33] = assay: Drug discrimination effect in CD Albino rat assessed as percent of rat choosing cocaine lever at 5.6 mg/kg, ip; type: functional; settings: route intraperitoneal
Mus musculus [34] = assay: Activity in CD1 mouse assessed as circling at 100 mg/kg, ip after 4 hrs; type: functional, organism-based; set-up: dose 100 mg/kg
Mus musculus [35] = assay: Activity in CD1 mouse assessed as hypoactivity at 100 mg/kg, ip after 4 hrs; type: functional, organism-based; set-up: dose 100 mg/kg
Rattus norvegicus [36] = assay: Drug discrimination effect in CD Albino rat assessed as percent of rat choosing cocaine lever at 1 mg/kg, ip; type: functional; settings: route intraperitoneal
Rattus norvegicus [37] = assay: Drug discrimination effect in CD Albino rat assessed as percent of rat choosing cocaine lever at 1.7 mg/kg, ip; type: functional; settings: route intraperitoneal
Mus musculus [38] = assay: Activity in CD1 mouse assessed as slight or intermittent hyperactivity at 100 mg/kg, ip after 4 hrs; type: functional, organism-based; set-up: dose 100 mg/kg
Mus musculus [39] = assay: Locomotor activity in CD1 mouse assessed as stimulation at 100 mg/kg, ip after 1 hr relative to control; type: functional; settings: route intraperitoneal
Mus musculus [40] = assay: Locomotor activity in CD1 mouse assessed as stimulation at 100 mg/kg, ip after 2 hrs relative to control; type: functional; settings: route intraperitoneal
Mus musculus [41] = assay: Locomotor activity in CD1 mouse assessed as stimulation at 100 mg/kg, ip after 3 hrs relative to control; type: functional; settings: route intraperitoneal
Mus musculus [42] = assay: Locomotor activity in CD1 mouse assessed as stimulation at 100 mg/kg, ip after 4 hrs relative to control; type: functional; settings: route intraperitoneal
Mus musculus [43] = assay: Locomotor activity in CD1 mouse assessed as stimulation at 0.3 mg/kg, ip after 1 hr relative to control; type: functional; settings: route intraperitoneal
Mus musculus [44] = assay: Locomotor activity in CD1 mouse assessed as stimulation at 0.3 mg/kg, ip after 2 hrs relative to control; type: functional; settings: route intraperitoneal
Mus musculus [45] = assay: Locomotor activity in CD1 mouse assessed as stimulation at 0.3 mg/kg, ip after 3 hrs relative to control; type: functional; settings: route intraperitoneal
Mus musculus [46] = assay: Locomotor activity in CD1 mouse assessed as stimulation at 0.3 mg/kg, ip after 4 hrs relative to control; type: functional; settings: route intraperitoneal
Mus musculus [47] = assay: Locomotor activity in CD1 mouse assessed as stimulation at 0.1 mg/kg, ip after 1 hr relative to control; type: functional; settings: route intraperitoneal
Mus musculus [48] = assay: Locomotor activity in CD1 mouse assessed as stimulation at 0.1 mg/kg, ip after 2 hrs relative to control; type: functional; settings: route intraperitoneal
Mus musculus [49] = assay: Locomotor activity in CD1 mouse assessed as stimulation at 0.1 mg/kg, ip after 3 hrs relative to control; type: functional; settings: route intraperitoneal
Mus musculus [50] = assay: Locomotor activity in CD1 mouse assessed as stimulation at 0.1 mg/kg, ip after 4 hrs relative to control; type: functional; settings: route intraperitoneal
Rattus norvegicus [51] = assay: Drug discrimination effect in CD Albino rat assessed as percent of rat choosing cocaine lever at 0.17 mg/kg, ip; type: functional; settings: route intraperitoneal
Rattus norvegicus [52] = assay: Drug discrimination effect in CD Albino rat assessed as percent of rat choosing cocaine lever at 0.3 mg/kg, ip; type: functional; settings: route intraperitoneal
Mus musculus [53] = assay: Activity in CD1 mouse assessed as hyperactivity at 1 mg/kg, ip after 4 hrs; type: functional, organism-based; set-up: dose 1 mg/kg
Mus musculus [54] = assay: Activity in CD1 mouse assessed as stereotypy at 1 mg/kg, ip after 4 hrs; type: functional, organism-based; set-up: dose 1 mg/kg
Mus musculus [55] = assay: Activity in CD1 mouse assessed as circling at 1 mg/kg, ip after 4 hrs; type: functional, organism-based; set-up: dose 1 mg/kg
Mus musculus [56] = assay: Activity in CD1 mouse assessed as stereotypy at 10 mg/kg, ip after 4 hrs; type: functional, organism-based; set-up: dose 10 mg/kg
Rattus norvegicus [57] = assay: Drug discrimination effect in CD Albino rat assessed as percent of rat choosing cocaine lever at 0.1 mg/kg, ip; type: functional; settings: route intraperitoneal

SMILES | Activity (Mus musculus [1]) [%] | Activity (Mus musculus [2]) [%] | Activity (Mus musculus [3]) [%] | Activity (Mus musculus [4]) [%] | ED50 (Rattus norvegicus [5]) [mg/kg] | Activity (Rattus norvegicus [6]) [%] | Activity (Rattus norvegicus [7]) [%] | Activity (Mus musculus [10]) | pIC50 [16] | pIC50 [17] | pKi [17] | ED50 (Mus musculus [18]) [mg/kg] | Activity (Mus musculus [19]) [%] | Activity (Mus musculus [20]) [%] | Activity (Mus musculus [21]) [%] | Activity (Mus musculus [22]) [%] | Activity (Mus musculus [23]) [%] | Activity (Mus musculus [24]) [%] | Activity (Mus musculus [25]) [%] | Activity (Mus musculus [26]) [%] | further results
COC(=O)[C@H]1C2CCC(C[C@@H]1c1ccc(I)cc1)N2C (some centres undefined) | 0 | 44 | 99 | 41 | 13.5 | 0 | 14 | Active | 7.64 | 6.12 | 6.34 | 9.9 | 19 | 17 | 96 | 13 | 17 | 49 | 85 | 40 | Activity (Rattus norvegicus [8]): 80%; Activity (Mus musculus [9]): Active; Activity (Mus musculus [11]): Active; Activity (Mus musculus [12]): Active; Activity (Mus musculus [13]): Active; Activity (Mus musculus [14]): Active; Activity (Mus musculus [15]): Active; Activity (Mus musculus [27]): 7%; Activity (Mus musculus [28]): 150%; Activity (Mus musculus [29]): 268%; Activity (Mus musculus [30]): 255%; Ratio (Mus musculus [31]): 0.1; pIC50 [32]: 7.18; pKi [32]: 8.22
COC(=O)[C@H]1C2CCC(C[C@@H]1c1ccc(F)cc1)N2C (some centres undefined) | -10 | 5 | 52 | 28 | 8.01 | 0 | 57 | Active |  | 5.14 | 5.36 | 2.4 | 15 | 58 | 120 | 19 | 58 | 107 | 260 | 196 | Activity (Rattus norvegicus [33]): 33%; Activity (Rattus norvegicus [8]): 100%; Activity (Mus musculus [9]): Active; Activity (Mus musculus [34]): Active; Activity (Mus musculus [14]): Active; Activity (Mus musculus [15]): Active; Activity (Mus musculus [35]): Active; Activity (Mus musculus [27]): 24%; Activity (Mus musculus [28]): 207%; Activity (Mus musculus [29]): 298%; Activity (Mus musculus [30]): 127%; pIC50 [32]: < 5.00
COC(=O)[C@@H]1C2CCC(C[C@H]1c1ccc(I)cc1)N2C (some centres undefined) |  |  |  |  | 4.72 | 43 | 86 |  | 8.54 | 7.28 | 7.49 | 7.7 | 14 | -72 | 64 | -42 | 210 | 100 | 457 | 49 | Activity (Rattus norvegicus [36]): 0%; Activity (Rattus norvegicus [37]): 14%; Activity (Rattus norvegicus [33]): 44%; Activity (Mus musculus [38]): Active; Activity (Mus musculus [27]): 308%; Activity (Mus musculus [28]): 121%; Activity (Mus musculus [29]): 391%; Activity (Mus musculus [30]): 25%; Activity (Mus musculus [39]): 328%; Activity (Mus musculus [40]): 168%; Activity (Mus musculus [41]): 692%; Activity (Mus musculus [42]): 124%; Ratio (Mus musculus [31]): 1; pIC50 [32]: 7.19; pKi [32]: 8.23
COC(=O)C1C2CC[C@H](C[C@@H]1c1ccc(Cl)cc1)N2C (some centres undefined) | 645 | 958 | 1892 | 1507 | 0.13 |  |  | Active | 8.96 |  |  | 0.2 | 416 | -36 | 589 | 1643 |  |  |  |  | Activity (Mus musculus [43]): 462%; Activity (Mus musculus [44]): 1426%; Activity (Mus musculus [45]): 1201%; Activity (Mus musculus [46]): 235%; Activity (Mus musculus [47]): -26%; Activity (Mus musculus [48]): 53%; Activity (Mus musculus [49]): 91%; Activity (Mus musculus [50]): 17%; Activity (Rattus norvegicus [51]): 44%; Activity (Rattus norvegicus [52]): 100%; Activity (Mus musculus [53]): Active; Activity (Mus musculus [54]): Active; Activity (Mus musculus [55]): Active; Activity (Mus musculus [56]): Active; Activity (Mus musculus [11]): Active; Activity (Mus musculus [12]): Active; Activity (Rattus norvegicus [57]): 50%
